Laboratory results from US11884647B2, “Compounds and methods for targeting pathogenic blood vessels” (THE REGENTS OF THE UNIVERSITY OF CALIFORNIA, priority 2019, dated 2024).

What was measured:
[1] = system: tumor endothelial cells (CT26.CL25 colon cancer tumor); experiment: Colon CT26 ex vivo model of tumor angiogenesis; format: cell-based; details: Mus musculus, CT26, 48 h, read-out: Cell death
In short: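 Explant pieces of CT26 tumor (about 0.075 mm^3) were embedded in Matrigel and grown in endothelial growth medium at 37 °C for about 7 days until endothelial outgrowth appeared, then treated. Cell death was read about 48 h after drug addition by fluorescein diacetate (live) and propidium iodide (dead) staining with red/green imaging.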

[2] = system: tumor endothelial cells (LL/2 lung cancer tumor); experiment: Lung LL2 ex vivo model of tumor angiogenesis; format: cell-based, mouse; details: for cytotoxicity at 40 µM / cytotoxicity at 20 µM: Mus musculus, Endothelial cell, 48 h, read-out: Cell death; for Cell death: Lung LL2 ex vivo, drug treatment two days
In short: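 Read-out is live/dead fluorescence imaging (fluorescein diacetate green, propidium iodide red, 10 min at 37° C) at 2×, taken e.g. 48 h after drug addition. Fragments of mouse LL2 tumor are cultured in Matrigel with endothelial growth medium, usually 4 days, until new endothelial cells grow out, then treated.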

CCCCOc1ccc(S(=O)(=O)c2cnc3ccc(SC)cc3c2N2CCCN(C)CC2)cc1 [compound 160, 3-((4-butoxyphenyl)sulfonyl)-4-(4-methyl-1,4-diazepan-1-yl)-6-(methylthio)quinoline]
cytotoxicity at 40 µM [1]: 100% | cytotoxicity at 40 µM [2]: 100%

COc1ccc(S(=O)(=O)c2cnc3ccc([N+](=O)[O-])cc3c2-n2cncn2)cc1 [compound 97, 3-((4-methoxyphenyl)sulfonyl)-6-nitro-4-(1H-1,2,4-triazol-1-yl)quinoline]
cytotoxicity at 10 µM [1]: 100% | cytotoxicity at 20 µM [2]: 50%

CCCN(CCC)c1c(S(=O)(=O)c2ccc(OC)c(OC)c2)cnc2ccc(OC(F)(F)F)cc12 [compound 71, 3-((3,4-dimethoxyphenyl)sulfonyl)-N,N-dipropyl-6-(trifluoromethoxy)quinolin-4-amine]
cytotoxicity at 40 µM [1]: 0% | cytotoxicity at 40 µM [2]: 10%

CCc1ccc(S(=O)(=O)c2cnc3ccc(OC(F)(F)F)cc3c2N2CCCC(O)C2)cc1 (stereo not drawn) [compound 82, 1-(3-((4-ethylphenyl)sulfonyl)-6-(trifluoromethoxy)quinolin-4-yl)piperidin-3-ol]
cytotoxicity at 40 µM [1]: 10% | cytotoxicity at 40 µM [2]: 60%

CN1CCN(Nc2c(S(=O)(=O)c3ccc(OC(F)(F)F)cc3)cnc3ccc(OC(F)(F)F)cc23)CC1 [compound 90, N-(4-methylpiperazin-1-yl)-6-(trifluoromethoxy)-3-((4-(trifluoromethoxy)phenyl)sulfonyl)quinolin-4-amine]
cytotoxicity at 40 µM [1]: 0% | Cell death ([2]; Conc. 40 μm): 10%

CCc1ccc(S(=O)(=O)c2cnc3ccc(C(=O)O)cc3c2N2CCC(O)CC2)cc1 [compound 65, 3-((4-ethylphenyl)sulfonyl)-4-(4-hydroxypiperidin-1-yl)quinoline-6-carboxylic acid]
cytotoxicity at 40 µM [1]: 0% | cytotoxicity at 40 µM [2]: 10%

CCCCOc1ccc(S(=O)(=O)c2cnc3ccc([S+](C)[O-])cc3c2N2CCCN(C)CC2)cc1 (stereo not drawn) [compound 163, 3-((4-butoxyphenyl)sulfonyl)-4-(4-methyl-1,4-diazepan-1-yl)-6-(methylsulfinyl)quinoline]
cytotoxicity at 40 µM [1]: 100% | cytotoxicity at 40 µM [2]: 95%

CCc1ccc(S(=O)(=O)c2cnc3ccc([N+](=O)[O-])cc3c2N2CCCN(C)CC2)cc1 [compound 76, 3-((4-ethylphenyl)sulfonyl)-4-(4-methyl-1,4-diazepan-1-yl)-6-nitroquinoline]
cytotoxicity at 40 µM [1]: 100% | cytotoxicity at 40 µM [2]: 20%

CCCCOc1ccc(S(=O)(=O)c2cnc3ccc([S+](C)[O-])cc3c2N2CCCN(CCN3CCCC3)CC2)cc1 (stereo not drawn) [compound 210, 3-((4-butoxyphenyl)sulfonyl)-6-(methylsulfinyl)-4-(4-(2-(pyrrolidin-1-yl)ethyl)-1,4-diazepan-1-yl)quinoline]
cytotoxicity at 40 µM [1]: 70% | cytotoxicity at 40 µM [2]: 50%

CCc1ccc(S(=O)(=O)c2cnc3ccc(OC(F)(F)F)cc3c2N(C)Cc2ccccc2)cc1 [compound 49, N-benzyl-3-((4-ethylphenyl)sulfonyl)-N-methyl-6-(trifluoromethoxy)quinolin-4-amine]
cytotoxicity at 40 µM [1]: 10% | cytotoxicity at 40 µM [2]: 30%

CCOC(=O)C1CCN(c2c(S(=O)(=O)c3ccc(CC)cc3)cnc3ccc(OC(F)(F)F)cc23)CC1 [compound 47, ethyl 1-(3-((4-ethylphenyl)sulfonyl)-6-(trifluoromethoxy)quinolin-4-yl)piperidine-4-carboxylate]
cytotoxicity at 40 µM [1]: 10% | cytotoxicity at 40 µM [2]: 50%

CCc1ccc(S(=O)(=O)c2cnc3ccc(OC(F)(F)F)cc3c2N(CC)CC)cc1 [compound 81, N,N-diethyl-3-((4-ethylphenyl)sulfonyl)-6-(trifluoromethoxy)quinolin-4-amine]
cytotoxicity at 40 µM [1]: 0% | cytotoxicity at 40 µM [2]: 0%

CCOC(=O)c1ccc2ncc(S(=O)(=O)c3ccc(OC)cc3)c(N(CCO)CCO)c2c1 [compound 156, ethyl 4-(bis(2-hydroxyethyl)amino)-3-((4-methoxyphenyl)sulfonyl)quinoline-6-carboxylate]
cytotoxicity at 40 µM [1]: 0% | Cell death ([2]; Conc. 40 μm): 30%

O=[N+]([O-])c1ccc(S(=O)(=O)c2cnc3ccc(OC(F)(F)F)cc3c2N2CCC(N3CCCCC3)CC2)cc1 [compound 59, 4-([1,4′-bipiperidin]-1′-yl)-3-((4-nitrophenyl)sulfonyl)-6-(trifluoromethoxy)quinoline]
cytotoxicity at 40 µM [1]: 50% | cytotoxicity at 40 µM [2]: 40%

COc1ccc(S(=O)(=O)c2cnc3ccc(SC)cc3c2N2CCC(N3CCCCC3)CC2)cc1OC [compound 121, 4-([1,4′-bipiperidin]-1′-yl)-3-((3,4-dimethoxyphenyl)sulfonyl)-6-(methylthio)quinoline]
cytotoxicity at 40 µM [1]: 40% | cytotoxicity at 40 µM [2]: 50%

CCc1ccc(S(=O)(=O)c2cnc3ccc(OC(F)(F)F)cc3c2N2CCCN(CC(=O)O)CC2)cc1 [compound 42, 2-(4-(3-((4-ethylphenyl)sulfonyl)-6-(trifluoromethoxy)quinolin-4-yl)-1,4-diazepan-1-yl)acetic acid]
cytotoxicity at 40 µM [1]: 0% | cytotoxicity at 40 µM [2]: 30%

CCc1ccc(S(=O)(=O)c2cnc3ccc(OC(F)(F)F)cc3c2NCCO)cc1 [compound 95, 2-((3-((4-ethylphenyl)sulfonyl)-6-(trifluoromethoxy)quinolin-4-yl)amino)ethan-1-ol]
cytotoxicity at 40 µM [1]: 0% | cytotoxicity at 40 µM [2]: 10%

CCc1ccc(S(=O)(=O)c2cnc3ccc(OC(F)(F)F)cc3c2N2CCC(N3CCCC3)CC2)cc1 [compound 46, 3-((4-ethylphenyl)sulfonyl)-4-(4-(pyrrolidin-1-yl)piperidin-1-yl)-6-(trifluoromethoxy)quinoline]
cytotoxicity at 40 µM [1]: 100% | cytotoxicity at 40 µM [2]: 100%

CCCCCCCOc1ccc(S(=O)(=O)c2cnc3ccc([S+](C)[O-])cc3c2N2CCCN(CCN3CCCCC3)CC2)cc1 (stereo not drawn) [compound 255, 3-((4-(heptyloxy)phenyl)sulfonyl)-6-(methylsulfinyl)-4-(4-(2-(piperidin-1-yl)ethyl)-1,4-diazepan-1-yl)quinoline]
cytotoxicity at 10 µM [1]: 0% | cytotoxicity at 20 µM [2]: 10%

CCCCOc1ccc(S(=O)(=O)c2cnc3ccc(C(=O)OCC)cc3c2N2CCCN(C)CC2)cc1 [compound 158, ethyl 3-((4-butoxyphenyl)sulfonyl)-4-(4-methyl-1,4-diazepan-1-yl)quinoline-6-carboxylate]
cytotoxicity at 40 µM [1]: 100% | cytotoxicity at 40 µM [2]: 100%

CCc1ccc(S(=O)(=O)c2cnc3ccc(OC(F)(F)F)cc3c2N2CCC(OCCN(CC)CC)CC2)cc1 [compound 101, N,N-diethyl-2-((1-(3-((4-ethylphenyl)sulfonyl)-6-(trifluoromethoxy)quinolin-4-yl)piperidin-4-yl)oxy)ethan-1-amine]
cytotoxicity at 20 µM [1]: 50% | Cell death ([2]; Conc. 20 μm): 100%

CCCCOc1ccc(S(=O)(=O)c2cnc3ccc(C(=O)OCC)cc3c2N2CCC(N3CCC(c4ccccc4)CC3)CC2)cc1 [compound 215, ethyl 3-((4-butoxyphenyl)sulfonyl)-4-(4-phenyl-[1,4′-bipiperidin]-1′-yl)quinoline-6-carboxylate]
cytotoxicity at 40 µM [1]: 20% | Cell death ([2]; Conc. 40 μm): 30%

CCOC(=O)c1ccc2ncc(S(=O)(=O)c3ccc(CC)cc3)c(-n3cncn3)c2c1 [compound 80, ethyl 3-((4-ethylphenyl)sulfonyl)-4-(1H-1,2,4-triazol-1-yl)quinoline-6-carboxylate]
cytotoxicity at 10 µM [1]: 100% | cytotoxicity at 20 µM [2]: 100%

CCc1ccc(S(=O)(=O)c2cnc3ccc(OC(F)(F)F)cc3c2-n2cncn2)cc1 [compound 51, 3-((4-ethylphenyl)sulfonyl)-4-(1H-1,2,4-triazol-1-yl)-6-(trifluoromethoxy)quinoline]
cytotoxicity at 40 µM [1]: 20% | cytotoxicity at 40 µM [2]: 100%

COc1ccc(S(=O)(=O)c2cnc3ccc(OC(F)(F)F)cc3c2N2CCC(O)CC2)cc1 [compound 44, 1-(3-((4-methoxyphenyl)sulfonyl)-6-(trifluoromethoxy)quinolin-4-yl)piperidin-4-ol]
cytotoxicity at 40 µM [1]: 0% | cytotoxicity at 40 µM [2]: 50%

CCCCOc1ccc(S(=O)(=O)c2cnc3ccc(C(=O)N(CC)CC)cc3c2N2CCC(N3CCCCC3)CC2)cc1 [compound 201, 4-([1,4′-bipiperidin]-1′-yl)-3-((4-butoxyphenyl)sulfonyl)-N,N-diethylquinoline-6-carboxamide]
cytotoxicity at 40 µM [1]: 10% | cytotoxicity at 40 µM [2]: 30%

CCc1ccc(S(=O)(=O)c2cnc3ccc(OC(F)(F)F)cc3c2N2CCC(CO)CC2)cc1 [compound 48, (1-(3-((4-ethylphenyl)sulfonyl)-6-(trifluoromethoxy)quinolin-4-yl)piperidin-4-yl)methanol]
cytotoxicity at 40 µM [1]: 10% | cytotoxicity at 40 µM [2]: 60%

CCCCOc1ccc(S(=O)(=O)c2cnc3ccc(C(=O)OCC)cc3c2N2CCC(N3CCN(CCO)CC3)CC2)cc1 [compound 214, ethyl 3-((4-butoxyphenyl)sulfonyl)-4-(4-(4-(2-hydroxyethyl)piperazin-1-yl)piperidin-1-yl)quinoline-6-carboxylate]
cytotoxicity at 40 µM [1]: 100% | cytotoxicity at 40 µM [2]: 100%

COc1ccc(S(=O)(=O)c2cnc3ccc(OC(F)(F)F)cc3c2N2CCCC(O)C2)cc1OC (stereo not drawn) [compound 70, 1-(3-((3,4-dimethoxyphenyl)sulfonyl)-6-(trifluoromethoxy)quinolin-4-yl)piperidin-3-ol]
cytotoxicity at 40 µM [1]: 10% | cytotoxicity at 40 µM [2]: 40%

CCc1ccc(S(=O)(=O)c2cnc3ccc(OC(F)(F)F)cc3c2-n2ccnn2)cc1 [compound 110, 3-((4-ethylphenyl)sulfonyl)-4-(1H-1,2,3-triazol-1-yl)-6-(trifluoromethoxy)quinoline]
cytotoxicity at 40 µM [1]: 10% | cytotoxicity at 20 µM [2]: 95%
